Data on one molecule can be found in ChEMBL document CHEMBL6153104, “Discovery of the first potent ROR1 degrader for the treatment of non-small cell lung cancer” (Eur J Med Chem, 2025).

Experiment [1] concerns NCI-H23. The experiment in a line: Induction of apoptosis in human NCI-H23 cells assessed as necrotic cells at 0.1 uM incubated for 24 hrs by […]/Annexin V-PE staining based flow cytometric analysis (reference value: 0.5 %). It is filed as functional.
Experiment [2] relates to NCI-H23. The experiment in a line: Induction of apoptosis in human NCI-H23 cells assessed as late apoptotic cells at 0.1 uM incubated for 24 hrs by […]/Annexin V-PE staining based flow cytometric analysis (reference value: 1.6 %). It is filed as functional.
Experiment [3] deals with NCI-H23. The experiment in a line: Induction of apoptosis in human NCI-H23 cells assessed as viable cells at 0.1 uM incubated for 24 hrs by […]/Annexin V-PE staining based flow cytometric analysis (reference value: 92.7 %). The conditions noted are these: read-out: Activity. In kind it is functional.
Experiment [4] has as its system NCI-H23. The experiment in a line: Induction of apoptosis in human NCI-H23 cells assessed as viable cells at 0.3 uM incubated for 24 hrs by […]/Annexin V-PE staining based flow cytometric analysis (reference value: 92.7 %). Particulars: read-out: Activity; call rule not given here. In kind it is functional.
The subject of another experiment is NCI-H1975. The experiment in a line: Antiproliferative activity against human NCI-H1975 cells assessed as inhibition of cell proliferation incubated for 72 hrs by CCK8 assay. The conditions noted are these: NCI-H1975, 72 h. It is filed as functional, cell-based.
Experiment [5] has as its system NCI-H23. The experiment in a line: Induction of apoptosis in human NCI-H23 cells assessed as necrotic cells at 1 uM incubated for 24 hrs by […]/Annexin V-PE staining based flow cytometric analysis (reference value: 0.5 %). It is filed as functional.
The subject of experiment [6] is NCI-H23. The experiment in a line: Induction of apoptosis in human NCI-H23 cells assessed as necrotic cells at 0.3 uM incubated for 24 hrs by […]/Annexin V-PE staining based flow cytometric analysis (reference value: 0.5 %). It is filed as functional.
The subject of experiment [7] is NCI-H23. The experiment in a line: Induction of apoptosis in human NCI-H23 cells assessed as early apoptotic cells at 0.3 uM incubated for 24 hrs by […]/Annexin V-PE staining based flow cytometric analysis (reference value: 5.1 %). In kind it is functional.
In experiment [8] the test system is NCI-H23. The experiment in a line: Induction of apoptosis in human NCI-H23 cells assessed as late apoptotic cells at 1 uM incubated for 24 hrs by […]/Annexin V-PE staining based flow cytometric analysis (reference value: 1.6 %). It is filed as functional.
The subject of experiment [9] is NCI-H23. Nature of the experiment: Induction of apoptosis in human NCI-H23 cells assessed as late apoptotic cells at 0.3 uM incubated for 24 hrs by […]/Annexin V-PE staining based flow cytometric analysis (reference value: 1.6 %). It is filed as functional.
For experiment [10], the target named is Inactive tyrosine-protein kinase transmembrane receptor ROR1 (Homo sapiens, UniProt Q01973). The experiment in a line: Binding affinity to RED-NHS-labeled human ROR1 kinase domain (460 to 752 residues) extracted from Sf9 cells assessed as dissociation constant incubated for 30 mins by MST analysis. It is filed as cell-free.
Chain of Inactive tyrosine-protein kinase transmembrane receptor ROR1 (Q01973 whole entry, the tested form may be a part): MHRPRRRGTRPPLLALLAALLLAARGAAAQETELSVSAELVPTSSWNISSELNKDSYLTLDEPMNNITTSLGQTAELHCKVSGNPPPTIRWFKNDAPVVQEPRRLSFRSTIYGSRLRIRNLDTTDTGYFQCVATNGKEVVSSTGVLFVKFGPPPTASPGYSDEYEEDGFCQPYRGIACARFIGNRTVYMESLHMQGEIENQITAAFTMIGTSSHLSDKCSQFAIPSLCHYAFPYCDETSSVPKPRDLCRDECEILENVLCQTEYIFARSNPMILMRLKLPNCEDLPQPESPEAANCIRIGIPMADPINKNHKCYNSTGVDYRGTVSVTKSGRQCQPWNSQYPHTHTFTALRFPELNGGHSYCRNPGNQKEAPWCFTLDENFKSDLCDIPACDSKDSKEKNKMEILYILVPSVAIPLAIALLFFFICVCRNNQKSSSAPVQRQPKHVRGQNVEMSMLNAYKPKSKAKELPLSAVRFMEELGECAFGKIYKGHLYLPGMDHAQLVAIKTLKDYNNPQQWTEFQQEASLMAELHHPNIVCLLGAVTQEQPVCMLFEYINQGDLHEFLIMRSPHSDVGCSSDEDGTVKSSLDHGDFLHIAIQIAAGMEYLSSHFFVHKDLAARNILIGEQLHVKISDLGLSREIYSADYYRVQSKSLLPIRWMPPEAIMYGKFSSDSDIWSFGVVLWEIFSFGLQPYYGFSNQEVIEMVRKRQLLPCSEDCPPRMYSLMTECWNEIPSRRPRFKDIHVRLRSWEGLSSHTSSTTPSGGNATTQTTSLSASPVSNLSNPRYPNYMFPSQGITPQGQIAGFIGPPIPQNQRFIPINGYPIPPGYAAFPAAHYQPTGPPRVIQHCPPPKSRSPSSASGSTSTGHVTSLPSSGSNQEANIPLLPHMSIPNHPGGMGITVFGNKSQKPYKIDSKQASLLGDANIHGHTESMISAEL
For experiment [11], the system named is NCI-H23. Nature of the experiment: Induction of apoptosis in human NCI-H23 cells assessed as early apoptotic cells at 0.1 uM incubated for 24 hrs by […]/Annexin V-PE staining based flow cytometric analysis (reference value: 5.1 %). In kind it is functional.
In experiment [12] the test system is NCI-H23. The experiment in a line: Induction of apoptosis in human NCI-H23 cells assessed as viable cells at 1 uM incubated for 24 hrs by […]/Annexin V-PE staining based flow cytometric analysis (reference value: 92.7 %). In kind it is functional. Particulars: read-out: Activity.
The subject of experiment [13] is NCI-H23. Nature of the experiment: Antiproliferative activity against human NCI-H23 cells assessed as inhibition of cell proliferation incubated for 72 hrs by CCK8 assay. It is filed as functional, cell-based. The conditions noted are these: NCI-H23, 72 h.
Experiment [14] has as its system NCI-H23. Nature of the experiment: Induction of apoptosis in human NCI-H23 cells assessed as PARP1 cleavage at 1 uM measured after 10 hrs by Western blot analysis. In kind it is functional.
In experiment [15] the test system is NCI-H23. Nature of the experiment: Induction of apoptosis in human NCI-H23 cells assessed as PARP1 cleavage at 0.1 to 1 uM measured after 10 hrs by Western blot analysis. The conditions noted are these: dose 0.1-1 µM. It is filed as functional, cell-based.
The subject of another experiment is NCI-H460. Nature of the experiment: Antiproliferative activity against human NCI-H460 cells assessed as inhibition of cell proliferation incubated for 72 hrs by CCK8 assay. It is filed as functional, cell-based. The conditions noted are these: NCI-H460, 72 h.
In the next experiment the test system is NCI-H1299. The experiment in a line: Antiproliferative activity against human NCI-H1299 cells assessed as inhibition of cell proliferation incubated for 72 hrs by CCK8 assay. In kind it is functional, cell-based. The conditions noted are these: NCI-H1299, 72 h.
The test system of experiment [16] is NCI-H23. The experiment in a line: Induction of apoptosis in human NCI-H23 cells assessed as early apoptotic cells at 1 uM incubated for 24 hrs by […]/Annexin V-PE staining based flow cytometric analysis (reference value: 5.1 %). In kind it is functional.

As to `CCOCCN1CCN(c2ccc(-c3nc4c(NC5CCN(CC)CC5)c(Br)cnc4[nH]3)cc2)CC1`, the Activity in the experiment with NCI-H23 [1] turned out to be 0.2%; with NCI-H23 [2], 0.5%; with NCI-H23 [5], 0.7%; in the experiment with NCI-H23 [6] it was 0.2%; in the experiment on NCI-H23 [7] it was 4.3%; in the experiment on NCI-H23 [8], 6.1%. The Activity with NCI-H23 [9] was 1%; in the experiment with NCI-H23 [11], 2.5%; in the experiment with NCI-H23 [14], 100%; with NCI-H23 [15], “Active; Less Potent Compared To Compound 11”; in the experiment with NCI-H23 [16] it was 29.5%. Also, the viability at 0.1 µM with NCI-H23 [3] was 96.9%. Moreover, the viability at 0.3 µM with NCI-H23 [4] was 94.5%. In addition, the IC50 was 0.371 µM in the experiment on NCI-H1975, 0.483 µM with NCI-H23 [13], 5.21 µM in the experiment on NCI-H460 and 5.82 µM in the experiment with NCI-H1299. In [10], the Kd is 42 µM. Also, the viability at 1 µM in the experiment on NCI-H23 [12] was determined as 63.7%.
